The target of one test is T1, TMEM16A (acd) (Homo sapiens, UniProt Q5XXA6).
T1 sequence (Q5XXA6 1-986): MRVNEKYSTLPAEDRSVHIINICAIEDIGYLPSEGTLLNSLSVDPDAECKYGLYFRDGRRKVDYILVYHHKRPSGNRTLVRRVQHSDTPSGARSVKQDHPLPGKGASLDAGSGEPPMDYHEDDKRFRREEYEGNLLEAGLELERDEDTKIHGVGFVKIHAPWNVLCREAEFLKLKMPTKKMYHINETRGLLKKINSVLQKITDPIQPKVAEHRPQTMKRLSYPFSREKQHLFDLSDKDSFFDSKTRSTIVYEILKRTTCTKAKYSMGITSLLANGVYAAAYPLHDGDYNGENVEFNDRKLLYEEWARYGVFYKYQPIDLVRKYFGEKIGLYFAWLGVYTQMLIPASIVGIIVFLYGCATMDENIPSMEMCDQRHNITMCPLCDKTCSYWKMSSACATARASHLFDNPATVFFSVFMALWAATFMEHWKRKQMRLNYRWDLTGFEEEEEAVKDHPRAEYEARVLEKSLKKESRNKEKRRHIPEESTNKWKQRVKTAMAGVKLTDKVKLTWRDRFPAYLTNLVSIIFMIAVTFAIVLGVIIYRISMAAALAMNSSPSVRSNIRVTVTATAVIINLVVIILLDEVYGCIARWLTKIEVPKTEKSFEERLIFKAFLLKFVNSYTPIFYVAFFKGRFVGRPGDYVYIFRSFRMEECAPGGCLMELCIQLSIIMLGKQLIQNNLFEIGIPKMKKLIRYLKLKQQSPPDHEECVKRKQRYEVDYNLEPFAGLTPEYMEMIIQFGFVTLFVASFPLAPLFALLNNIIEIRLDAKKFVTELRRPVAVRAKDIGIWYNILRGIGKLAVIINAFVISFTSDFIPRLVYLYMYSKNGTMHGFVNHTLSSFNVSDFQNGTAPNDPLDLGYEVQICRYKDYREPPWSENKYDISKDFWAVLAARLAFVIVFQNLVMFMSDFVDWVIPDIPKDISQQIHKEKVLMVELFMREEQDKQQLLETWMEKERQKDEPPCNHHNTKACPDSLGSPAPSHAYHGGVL
Nature of the test: QPatch whole-cell electrophysiology, HEK293 TMEM16A (acd). The test is classed as cell-based. Particulars: for effect on inward current at −100 mV, whole cell patch clamp: 170 nM free calcium, Vhold 0 mV; for IC50 / calcium-activated chloride current inhibited: QPatch; for IC50: outward current at +100 mV, 170 nM free intracellular calcium, ~60 s per concentration, read-out: TMEM16A Chloride Current (IC50); for calcium-activated chloride current inhibited: maximum antagonist activity; for time to achieve steady state block: single concentration. The text has this: HEK293 cells stably expressing the TMEM16A (acd) variant were purchased from SB Drug Discovery. The HEK293 TMEM16A (abc) stable cell line was from ChanTest and COLO-205 cells were purchased from ATCC. The same standard buffers and recording conditions listed below were used for QPatch studies on all three cell lines.
Recording Solutions: were made weekly as below and stored at room temperature until used. It is recommended not to add ATP to internal solution until immediately before using on the QPatch. The external buffer (in mM) was 140 NaCl, 4 KCl, 2 CaCl2, 1 MgCl2, 10 HEPES, 10 Glucose, pH7.4, while the internal buffer (in mM) was 110 CsCl, 20 TEA-Cl, 5.374 CaCl2, 1.75 MgCl2, 10 EGTA, 10 HEPES, 4 Na2ATP, pH 7.2.
Once established in whole-cell configuration, cells were clamped to a holding potential (Vhold) of 0 mV on 48 well single hole patch plate. A standardized IV protocol was used to elicit ionic current through the TMEM16A chloride channel at 20 s intervals. Steady-state voltage pulses were from −100 mV to +100 mV in +20 mV steps for a duration of 500 ms. After each pulse the voltage was returned to −100 mV for 50 ms to obtain tail currents, and then returned to the holding potential of 0 mV until the beginning of the next sweep. […] This ensures a minimum of 60 s per concentration incubation before measuring current block. Currents were acquired at 10 kHz and filtered at 2 kHz, leak subtraction and Rseries were disabled. A 1 MΩ minimum resistance was set because cells are held in an open channel state and therefore resistance is low.
A cumulative concentration response was measured where each cell is exposed to five concentrations of test article with a dilution factor of 1:5 (e.g., 0.048, 0.24, 1.2, 6, and 30 μM). Cells were recorded for ∼60 s per solution/compound addition. Initially, external solution is applied twice to allow currents to stabilize. Then vehicle (from the saline reservoir) is added twice to monitor any effect 0.3% DMSO might have on currents. This leads directly into the concentration runs by applying Concentration 1 (single addition) for 1 min. Concentration 2 is then applied for the subsequent minute, etc. Recovery/washout was monitored for a final minute with a final external solution addition.
[…] […] Each cell’s current magnitude was then normalized to itself at the initial 0.3% vehicle control period prior to compound application. This step is to account for differences in current size for each cell. Normalized responses to test article were plotted against their concentrations to reveal a concentration-inhibition plot.
A Normalized Group Hill fit was then performed on the plotted results to yield a pooled IC50 value, reconstructed from a minimum of two cells/concentration. The baseline response as well as the full response were constrained to 1 and 0, respectively.

The subject of test [1] is human bronchial smooth muscle cells. Nature of the test: Histamine-induced depolarization of human bronchial smooth muscle cells (FLIPR membrane potential). The test is classed as cell-based. To be noted: read-out: Histamine Depolarization of ASM Cells (IC50). As to the method:
Cultured human bronchial smooth muscle cells (BSMC) from Lonza were resuspended in Smooth Muscle Growth Medium-2 (SmGM-2; Lonza) at a concentration of 4 × 10^5 cells per ml. One hundred microliters of cells per well were plated in a black wall clear bottom polystyrene 96-well tissue culture plate and incubated in a 37°C humidified incubator with 5% CO2 overnight. Cells were serum starved by removing the SmGM-2 and replaced with one hundred microliters per well of Smooth Muscle Cell Basal Medium 2 (SmBM-2), phenol red-free (PromoCell), and incubated in a 37°C humidified incubator with 5% CO2 for 24 h. SmBM-2 was replaced with 100 microliters of fresh SmBM-2. Compounds were dissolved in 100% DMSO and serially diluted ½ log in a polypropylene 96-well microtiter plate (drug plate). Columns 6 and 12 were reserved as controls (HI control and LO control respectively) and contained only DMSO. Serially diluted compounds were diluted in SmBM-2 to 10X the final concentration. Twenty-five microliters of 10X compound titrations, and one hundred microliters of Blue dye-loading buffer (FLIPR Membrane Potential Assay Kit; Molecular Devices) were added to the cells. Cells were pre-incubated at room temperature with compound for 0.5 h. Five micromolar (10X) histamine was prepared in SmBM-2. Using the FLIPR-Tetra (Molecular Devices), three measurements of the baseline fluorescence were taken over the span of 1 min. Twenty-five microliters per well of 10X histamine were added to the first 11 columns of the plate containing the compound treated cells. Twenty-five microliters of SmBM-2 were added to column 12 for the LO control. Fifty-five fluorescence measurements were taken over the span of 14 min. The area under the curve (AUC) from the fluorescence kinetic traces (normalized to baseline fluorescence) were calculated. The amount of fluorescence in the presence of compound compared with that in the presence of DMSO vehicle alone (HI control) was calculated using the formula: % control (POC) = (compd – average LO)/(average HI – average LO)^∗100.

Consider `N#Cc1c(C(F)(F)F)cc(O)n2c1nc1ccccc12` [1PBC], for which, on TMEM16A (acd), the “effect on inward current at −100 mV, whole cell patch clamp” value (from here on “effect on inward current at −100 mV”) was “paradoxical increase”; the IC50 stood at 2810 ± 1250 nM; the “calcium-activated chloride current inhibited” value is reported as “Over 80%”. The IC50 in test [1] is 964 ± 756 nM.

In the case of `CCc1oc2ccccc2c1C(=O)c1cc(Br)c(O)c(Br)c1` [Benzbromarone], at TMEM16A (acd), the “effect on inward current at −100 mV” value is “inhibited”. The results for the IC50 (on TMEM16A (acd); in test [1]) were 4090 ± 2080 nM and 208 ± 248 nM, respectively.

As to `CC(C)(C)C1CCc2c(sc(NC(=O)c3ccco3)c2C(=O)O)C1` (stereo not drawn) [CaCCinh-A01], the half-inhibitory concentration (IC50) in test [1] turned out to be 4760 ± 1230 nM.

Regarding `O=C(Nc1ccc([N+](=O)[O-])cc1)c1cc(Cl)ccc1O` [Cpd 2], the half-inhibitory concentration (IC50) in test [1] is 44 nM.

Turning to `O=C(Nc1ccc([N+](=O)[O-])cc1)c1cc(Cl)c2ccccc2c1O` [Cpd 3], at TMEM16A (acd), the “effect on inward current at −100 mV” value is listed as “no significant effect” and the IC50 amounted to 610 ± 620 nM. Further, the IC50 in test [1] was 17 nM.

Turning to `COc1cc([N+](=O)[O-])ccc1NC(=O)c1cc(Cl)c2ccccc2c1O` [Cpd 4], at TMEM16A (acd), the “effect on inward current at −100 mV” value is reported as “no significant effect” and the IC50 turned out to be 620 ± 370 nM. Besides, in test [1], the half-maximal inhibitory concentration (IC50) worked out at 178 ± 7 nM.

For the molecule `O=C(Nc1ccc(Cl)cc1)c1cc(Cl)ccc1O` [Cpd 5], the concentration for half-maximal inhibition (IC50) was 2260 ± 650 nM on TMEM16A (acd) and 71 ± 20 nM in test [1].

Take `Oc1ccc(Cl)cc1Cc1cc(Cl)ccc1O` [Dichlorophen]: the values for the IC50 (on TMEM16A (acd); in test [1]) were 4660 ± 2200 nM and 938 ± 360 nM, respectively.

Take `COc1cc(Nc2ccc([N+](=O)[O-])cc2C(=O)O)cc2ccccc12` [MONNA]: at TMEM16A (acd), the “effect on inward current at −100 mV” value is “inhibited” and the concentration for half-maximal inhibition (IC50) was found to be 13600 ± 9760 nM. Further, the 50% inhibitory concentration (IC50) in test [1] was determined as 201 ± 162 nM.

As to `O=C(Nc1ncc([N+](=O)[O-])s1)c1cccs1` [NTTP], the figures for the IC50 (at TMEM16A (acd); in test [1]) were 4690 nM and 25200 ± 5440 nM, respectively.

As for `O=C(Nc1ccc([N+](=O)[O-])cc1Cl)c1cc(Cl)ccc1O` [Niclosamide], on TMEM16A (acd), the “effect on inward current at −100 mV” value is recorded as “paradoxical increase”; the IC50 was 2370 ± 2110 nM; the “calcium-activated chloride current inhibited” value was “Over 80%”. The “time to achieve steady state block” value at TMEM16A (acd) (1.11 μM) was “about 10 min”. Besides, the “time to achieve steady state block” value on TMEM16A (acd) (3.3 μM) is given as “approximately 4 min”. The IC50 in test [1] came to 389 ± 478 nM.

On to `O=C(O)c1cccnc1Nc1cccc(C(F)(F)F)c1` [Niflumic Acid], for which, at TMEM16A (acd), the “effect on inward current at −100 mV” value is listed as “stimulating” and the half-inhibitory concentration (IC50) turned out to be 8540 ± 6750 nM. The IC50 in test [1] came to 6280 ± 1590 nM.

As for `CCc1c(C)nc(SCC(=O)Nc2nc(-c3ccc(OC)cc3)cs2)[nH]c1=O` [T16Ainh-A01], the concentration for half-maximal inhibition (IC50) (at TMEM16A (acd); in test [1]) was more than 30000 nM in each case.

In the case of `O=C(Nc1ncc([N+](=O)[O-])s1)c1ccccc1O` [Tizoxanide], the half-inhibitory concentration (IC50) at TMEM16A (acd) was found to be 4420 ± 2400 nM.

Values taken from paper PMC6382696, “Drug Repurposing: The Anthelmintics Niclosamide and Nitazoxanide Are Potent TMEM16A Antagonists That Fully Bronchodilate Airways” (Frontiers in Pharmacology, 2019).
